Assays:
[1] = system: TNF-α release from THP-1 cells; test: Inhibition of TNF-α release from THP-1 cells after LPS stimulation; assay type: cell-based; conditions: Homo sapiens; LPS-stimulated THP-1 cells
Protocol: LPS stock was prepared at 1 mg/mL by adding 1 mL sterile endotoxin-free water to 1 mg LPS powder. The LPS stock was aliquoted and stored at −20 °C. […] An amount of 100 K THP-1 cells were seeded into a 96-well cell culture plate in 100 μL of test medium. […] A total of 10 μL compound was added to the plate with cells, and the cells were incubated for 1 hour at 37 °C. An amount of 10 μL/well LPS was added to stimulate the cells. The final LPS concentration was 300 ng/mL, and the DMSO concentration was 0.3%. […]. The plate was incubated for 5 hours at 37 °C. […] Three replicates were used for each dose. At the 5th hour, the TNF-α in the supernatants and standard curve samples was determined using the HTRF kit. […] Amounts of 5 μL Anti-TNF-α-Cryptate (Invitrogen, Carlsbad, CA, USA) and 5 μL Anti-TNFα-XL665 (Invitrogen) were added, and the plate was incubated at RT for 15 h. The plate was read on an Envision instrument (PerkinElmer) and the IC50 was calculated.

[2] = system: MAPKAPK2; test: Inhibition of MAPKAPK2 in GFP-MAPKAPk2_BHK cell model (nuclear translocation); assay type: cell-based; conditions: GFP-MAPKAPk2_BHK cells
Protocol: In order to study p38α inhibition in a cell system, we investigated the ability of all compounds to inhibit the phosphorylation of mitogen-activated protein-kinase-activated protein kinase 2 (MAPKAPK2). Each compound was prepared at […] concentrations (1, 3, 10 and 30 nM, 0.1 and 0.3 μM), and the percentages of inhibition were calculated from the numbers of cells after treatment with the different compounds.
GFP-MAPKAPk2_BHK cells were cultured in 96-well plates (2.0 × 10^4/100 μL/well) containing 10% heat-inactivated foetal bovine serum (FBS) and 1 mg/mL G418 at 37 °C in humidified air containing 5% CO2 for 18–24 h. The cells were washed with nutrient solution (100 μL/well) and changed to the compound liquid (100 μL/well). Experiments were set up with the control, and the compound was repeated at each concentration in three wells. The cells were cultured in 96-well plates at 37 °C in humidified air containing 5% CO2 for 90 min. The cells were washed with the dye solution (20 μL/well), and the dyed cells were held for 1 hour at room temperature in the dye liquid. Analysis of nuclear translocation and calculation of the ability of the compounds to inhibit nuclear translocation was performed using the IN Cell Analyzer 1000 Nuclear Trafficking Analysis Module System (GE, Madison, WI, USA). The cultured cells were treated with the obtained compounds in […] concentration grads (1, 3, 10 and 30 nM, 0.1 and 0.3 μM). The inhibitory percentage can be calculated using the amounts of cells after the disposition of the different compounds.

[3] = molecular target: MAPK14/p38α (Homo sapiens, UniProt Q16539); test: p38α MAP kinase activity, phosphorylation of ATF-2 (TR-FRET); assay type: biochemical; conditions: enzyme
Protocol: Kinase reaction buffer was composed of 50 mM HEPES (pH 7.5), 0.01% BRIJ-35, 10 mM MgCl2 and 1 mM EGTA. Prepared MAPK14/p38α in 1× kinase buffer with concentration at 500 ng/mL. A 2-fold serial dilution was performed using 1× kinase buffer from 500 ng/mL using 16 dose points. […] The reaction was started by adding 5 μL of the GFP-ATF2(19–96) substrate and ATP solution into each well of the assay plate. The final starting concentration of MAPK14/p38α was 250ng/ml, and the final GFP-ATF2 and ATP concentrations were 0.4 μM and 90 μM, respectively. The assay plate was sealed and incubated for 1 hour at room temperature (RT). Antibody solution (1 mL) was prepared from 20 mM EDTA and 4 nM Tb-antipATF2 (pThr71) antibody in TR-FRET dilution buffer. Antibody solution (10 μL) was added into each well of the assay plate and mixed gently. The final EDTA concentration was 10 mM, and the final Tb-antipATF2 (pThr71) concentration was 2 nM. The assay plate was sealed and incubated for 30 minutes at RT.
Inhibitor in 0.5% DMSO (2 μL/well) at 5-fold the final assay concentration was added into a 384-well assay plate. […] MAPK14/p38α (4 μL/well) was added to each well of the 384-well assay plate and incubated for 15 min at RT. To start the reaction, substrate GFP-ATF2 (19–96) and ATP (4 μL/well) were added into kinase reaction buffer. […] The resulting TR-FRET emission ratio was plotted against the concentration of inhibitor, and the data fitted to a sigmoidal dose-response curve with a variable slope. The IC50 concentration was calculated from the curve.

[4] = molecular target: p38α mitogen-activated protein kinase (Homo sapiens, UniProt Q16539); test: Surface plasmon resonance (Biacore) binding to p38α; conditions: SPR, 25 °C
Protocol: To assess the binding ability between the compounds and p38α protein, we used SPR for kinase inhibitor interaction studies.
The Biacore instrument uses a technique based on surface plasmon resonance to follow the real-time binding of compounds to immobilized proteins on a carboxymethyl dextran surface in a liquid milieu. Compounds were stored as 10 mM stock solutions in 100% dimethyl sulfoxide (DMSO). All light-sensitive compounds were handled under yellow protective light. […] ATP was dissolved directly in running buffer to make a 10 mM solution. The run was started with five start-up cycles in which running buffer was injected (instead of a sample) followed by sample injection cycles. Zero concentration samples were used as blanks. A typical analysis cycle consisted of a 60 s sample injection (30 μL/min), 120–200 s of buffer flow (dissociation phase), followed by a needle and tubing wash with 50% DMSO and buffer, and finally, a 30 s buffer injection to check for sample carry over. The flow cell temperature was 25 °C. Between sample series, a solvent correction cycle was run according to the instrument manual to adjust for referencing errors due to refractive index mismatches between running buffer and samples [35].

Chain of MAPK14/p38α (Q16539 whole entry): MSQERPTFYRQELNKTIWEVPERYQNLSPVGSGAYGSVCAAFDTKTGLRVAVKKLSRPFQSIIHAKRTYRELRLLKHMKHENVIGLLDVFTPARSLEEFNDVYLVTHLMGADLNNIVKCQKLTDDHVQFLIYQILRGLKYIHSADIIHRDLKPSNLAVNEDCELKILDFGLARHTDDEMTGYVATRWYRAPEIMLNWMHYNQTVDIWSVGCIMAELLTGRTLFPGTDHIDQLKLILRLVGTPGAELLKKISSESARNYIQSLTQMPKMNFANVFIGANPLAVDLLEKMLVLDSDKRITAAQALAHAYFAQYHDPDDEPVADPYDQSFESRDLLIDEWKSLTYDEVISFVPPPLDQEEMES
Chain of p38α mitogen-activated protein kinase (Q16539 whole entry): as above

SMILES	IC50 [1]	IC50 [2]	IC50 ([2]; bound given in µM)	IC50 ([3]; bound given in µM)	IC50 ([3]; GFP-ATF2 substrate, 90 μM ATP)	Kd [4]
CC(C)(C)c1cc(NC(=O)NCc2ccccc2Oc2ccc3[nH]ncc3c2)n(-c2ccc(S(N)(=O)=O)cc2)n1 [25k, 4-(5-(3-(2-((1H-Indazol-5-yl)oxy)benzyl)ureido)-3-(tert-butyl)-1H-pyrazol-1-yl)benzenesulfonamide]	8.69 ± 0.01 nM	0.039 ± 0.00576 µM	–	–	–	–
CC(C)(C)c1cc(NC(=O)Nc2ccccc2OCCN2CCOCC2)n(-c2ccccc2)n1 [28b, 1-(3-(tert-Butyl)-1-phenyl-1H-pyrazol-5-yl)-3-(2-(2-morpholinoethoxy)phenyl)urea]	–	–	> 10 µM	> 10 µM	–	–
CC(C)(C)c1cc(NC(=O)NCc2cc(F)ccc2Oc2ccc3[nH]ncc3c2)n(-c2ccc([N+](=O)[O-])cc2)n1 [25i, 1-(2-((1H-Indazol-5-yl)oxy)-5-fluorobenzyl)-3-(3-(tert-butyl)-1-(4-nitrophenyl)-1H-pyrazol-5-yl)urea]	–	0.00383 ± 0.00112 µM	–	–	0.00143 ± 8e-05 µM	–
CC(C)(C)c1cc(NC(=O)Nc2ccccc2Oc2ccc3[nH]ncc3c2)n(-c2ccccc2)n1 [29b, 1-(2-((1H-Indazol-5-yl)oxy)phenyl)-3-(3-(tert-butyl)-1-phenyl-1H-pyrazol-5-yl)urea]	–	–	> 10 µM	> 10 µM	–	–
CC(C)(C)c1cc(NC(=O)Nc2ccc(Oc3ccc4[nH]ncc4c3)c3c2OCC=C3)n(-c2ccccc2)n1 [26b, 1-(5-((1H-Indazol-5-yl)oxy)-2H-chromen-8-yl)-3-(3-(tert-butyl)-1-phenyl-1H-pyrazol-5-yl)urea]	–	0.0223 ± 0.00188 µM	–	–	0.00514 ± 0.00033 µM	–
Cc1ccc(-n2nc(C(C)(C)C)cc2NC(=O)NCc2ccccc2Oc2ccc3c(c2)CCCC3O)cc1 (stereo not shown) [27a, 1-(3-(tert-Butyl)-1-(p-tolyl)-1H-pyrazol-5-yl)-3-(2-((5-hydroxy-5,6,7,8-tetrahydronaphthalen-2-yl)oxy)-benzyl)urea]	15.3 ± 2.56 nM	0.13341 ± 7e-05 µM	–	–	0.00359 ± 0.00021 µM	–
Cc1ccc(-n2nc(C(C)(C)C)cc2NC(=O)NCc2cc(F)ccc2Oc2ccc3c(c2)CCCC3O)cc1 (stereo not shown) [27e, 1-(3-(tert-Butyl)-1-(p-tolyl)-1H-pyrazol-5-yl)-3-(5-fluoro-2-((5-hydroxy-5,6,7,8-tetrahydronaphthalen-2-yl)-oxy)benzyl)urea]	182 ± 4.35 nM	–	–	–	0.005 ± 0.00053 µM	–
CC(C)(C)c1cc(NC(=O)NCc2ccccc2Oc2ccc3[nH]ncc3c2)n(-c2ccccc2)n1 [25b, 1-(2-((1H-Indazol-5-yl)oxy)benzyl)-3-(3-(tert-butyl)-1-phenyl-1H-pyrazol-5-yl)urea]	1 ± 0.09 nM	0.00245 ± 0.00059 µM	–	–	0.0008 ± 3e-05 µM	382 nM
Cc1ccc(-n2nc(C(C)(C)C)cc2NC(=O)NCc2cc(F)ccc2Oc2ccc3[nH]ncc3c2)cc1 [25j, 1-(2-((1H-Indazol-5-yl)oxy)-5-fluorobenzyl)-3-(3-(tert-butyl)-1-(p-tolyl)-1H-pyrazol-5-yl)urea]	–	0.00361 ± 0.00243 µM	–	–	0.00153 ± 7e-05 µM	–
CC(C)(C)c1cc(NC(=O)NCc2ccccc2Oc2ccc3[nH]ncc3c2)n(-c2ccc(Br)cc2)n1 [25f, 1-(2-((1H-Indazol-5-yl)oxy)benzyl)-3-(1-(4-bromophenyl)-3-(tert-butyl)-1H-pyrazol-5-yl)urea]	1.82 ± 0.15 nM	0.0074 ± 0.00087 µM	–	–	0.00073 ± 1e-05 µM	–
CC(C)(C)c1cc(NC(=O)Nc2ccc(Oc3ccc4[nH]ncc4c3)c3c2OCC=C3)n(-c2ccc(F)cc2)n1 [26e, 1-(5-((1H-Indazol-5-yl)oxy)-2H-chromen-8-yl)-3-(3-(tert-butyl)-1-(4-fluorophenyl)-1H-pyrazol-5-yl)urea]	–	0.038 ± 0.00124 µM	–	–	0.00596 ± 1e-05 µM	–
COc1ccc(-n2nc(C(C)(C)C)cc2NC(=O)NCc2ccccc2Oc2ccc3[nH]ncc3c2)cc1 [25d, 1-(2-((1H-Indazol-5-yl)oxy)benzyl)-3-(3-(tert-butyl)-1-(4-methoxyphenyl)-1H-pyrazol-5-yl)urea]	1.43 ± 0.07 nM	0.00545 ± 0.00043 µM	–	–	0.00122 ± 0.00032 µM	–
CC(C)(C)c1cc(NC(=O)NCc2ccccc2Oc2ccc3c(c2)CCCC3O)n(-c2ccccc2)n1 (stereo not shown) [27c, 1-(3-(tert-Butyl)-1-phenyl-1H-pyrazol-5-yl)-3-(2-((5-hydroxy-5,6,7,8-tetrahydronaphthalen-2-yl)oxy)-benzyl)urea]	18.4 ± 4.35 nM	0.124 ± 0.00664 µM	–	–	0.00373 ± 0.00032 µM	–
Cc1ccc(-n2nc(C(C)(C)C)cc2NC(=O)Nc2ccccc2OCCN2CCOCC2)cc1 [28a, 1-(3-(tert-Butyl)-1-(p-tolyl)-1H-pyrazol-5-yl)-3-(2-(2-morpholinoethoxy)phenyl)urea]	–	–	> 10 µM	> 10 µM	–	–
CC(C)(C)c1cc(NC(=O)NCc2ccccc2Oc2ccc3c(c2)CCCC3O)n(-c2ccc([N+](=O)[O-])cc2)n1 (stereo not shown) [27b, 1-(3-(tert-Butyl)-1-(4-nitrophenyl)-1H-pyrazol-5-yl)-3-(2-((5-hydroxy-5,6,7,8-tetrahydronaphthalen-2-yl)-oxy)benzyl)urea]	27.5 ± 1.21 nM	0.0985 ± 0.00589 µM	–	–	0.00387 ± 0.00043 µM	–
CC(C)(C)c1cc(NC(=O)NCc2cc(F)ccc2Oc2ccc3c(c2)CCCC3O)n(-c2ccc([N+](=O)[O-])cc2)n1 (stereo not shown) [27d, 1-(3-(tert-Butyl)-1-(4-nitrophenyl)-1H-pyrazol-5-yl)-3-(5-fluoro-2-((5-hydroxy-5,6,7,8-tetrahydro-naphthalen-2-yl)oxy)benzyl)urea]	130 ± 3.33 nM	–	–	–	0.00576 ± 0.00024 µM	–
CC(C)(C)c1cc(NC(=O)NCc2ccccc2Oc2ccc3[nH]ncc3c2)n(-c2ccc(F)cc2)n1 [25g, 1-(2-((1H-Indazol-5-yl)oxy)benzyl)-3-(3-(tert-butyl)-1-(4-fluorophenyl)-1H-pyrazol-5-yl)urea]	2 ± 0.01 nM	0.00316 ± 0.00131 µM	–	–	0.00066 ± 9e-05 µM	–
Cc1ccc(-n2nc(C(C)(C)C)cc2NC(=O)Nc2ccccc2Oc2ccc3[nH]ncc3c2)cc1 [29a, 1-(2-((1H-Indazol-5-yl)oxy)phenyl)-3-(3-(tert-butyl)-1-(p-tolyl)-1H-pyrazol-5-yl)urea]	–	–	> 10 µM	> 10 µM	–	–
CC(C)(C)c1cc(NC(=O)NCc2ccccc2Oc2ccc3[nH]ncc3c2)n(-c2ccc(Cl)cc2)n1 [25e, 1-(2-((1H-Indazol-5-yl)oxy)benzyl)-3-(3-(tert-butyl)-1-(4-chlorophenyl)-1H-pyrazol-5-yl)urea]	3.48 ± 0.46 nM	0.00992 ± 0.00065 µM	–	–	–	–

Source: paper PMC6272846, “Synthesis and p38 Inhibitory Activity of Some Novel Substituted N,N′-Diarylurea Derivatives” (Molecules, 2016)
